Test results taken from EP0332387B1, “Triazole derivatives, their preparation and their use as fungicides” (Sankyo Company Limited, priority 1988, dated 1989).

Assays:
Format in all cases: in vivo
Rhizoctonia solani [1] = assay: Preventive activity against sheath blight of rice plants (Experiment 2); parameters: key: 0 = disease as untreated, 5 = no disease (complete control); conditions: rice seedlings (variety Nihonbare), sprayed at 100 ppm (30 ml/3 pots) 24 hours before inoculation, 5 days; height of the lesions
Experimental: Rice seedlings (variety Nihonbare) at the 4 - 5 leaf stage were sprayed with an aqueous suspension of the test compound at a concentration of 100 ppm (30 ml/3 pots). The seedlings were then kept for 24 hours at room temperature, after which they were inoculated with the fungus, Rhizoctonia solani, by placing 4 - 5 oat grains on which the fungus had previously been cultured around the base of each seedling. The seedlings were then kept in a moist chamber for 5 days at 25 - 27 °C. The disease controlling index was given on the basis of the height of the lesions formed on the rice seedlings.
Except in Table 12G, the compounds tested have the formula (1-1), in which Ar represents the group shown at the beginning of each part of the Table and R^1, R^2, X and Y are as defined in the Table.
(§1) The disease controlling index shown in the foregoing Tables 11 to 19 is indicated by the following codes: • 5--no disease (complete control) • 4--disease rate is less than 10% of the untreated plant • 3--disease rate is 10% - 30% of the untreated plant • 2--disease rate is 30% - 50% of the untreated plant • 1--disease rate is 50% - 70% of the untreated plant • 0--disease rate is almost same as the untreated plant.

Puccinia recondita = assay: Curative activity against leaf rust of wheat (Experiment 6); conditions: wheat seedlings (variety Norin No 61), sprayed after inoculation at 3 ppm (30 ml/3 pots), 10 days; diseased area on the first leaf
Experimental: Wheat seedlings (variety Norin No 61) at the first leaf stage were inoculated with the fungus, Puccinia recondita, by spraying them with a spore suspension of the fungus. They were then kept in a moist chamber for 24 hours at 20 - 22 °C, after which they were moved to a greenhouse at 15 - 20 °C. […] The seedlings were then continuously kept in the greenhouse for 10 days. The disease controlling index was given on the basis of diseased area on the first leaf.

[2] = test system: Erysiphe graminis f.sp. hordei; assay: Curative activity against powdery mildew of barley (Experiment 7); conditions: barley seedlings (variety Sekishinriki), sprayed one day after inoculation at 3 ppm (30 ml/3 pots), further 10 days; diseased area on the first leaf
Experimental: Barley seedlings (variety […]) at the first leaf stage were inoculated with conidia of Erysiphe graminis f.sp. hordei and kept in a greenhouse at 15 - 20°C. After one day, the seedlings were sprayed with an aqueous suspension of the test compound at a concentration of 3 ppm (30 ml/3 pots), and they continued to be kept in the greenhouse at that temperature for a further 10 days. The disease controlling index was given on the basis of the diseased area on the first leaf.

Venturia inaequalis = assay: Preventive activity against apple scab (Experiment 9); conditions: for Index (disease controlling index): apple seedlings sprayed at 300 ppm, inoculated after 24 hours, 3 days moist chamber then 10 days greenhouse, diseased area on third and fourth leaves
Experimental: Apple seedlings at the 3 - 4 leaf stage were sprayed with an aqueous suspension of the test compound at a concentration of 300 ppm (30 ml/3 pots). The seedlings were then kept for 24 hours at room temperature, after which they were inoculated with the fungus, Venturia inaequalis, by spraying a spore suspension of the fungus over the seedlings. After inoculation, the seedlings were kept in a moist chamber for 3 days at 20 - 22 °C and then moved to a greenhouse at 20 - 22°C for 10 days. The disease controlling index was given on the basis of the diseased area on the third and fourth leaves.

Gibberella Fujikuroi = assay: Activity against bakanae disease of rice plants by seed soaking (Experiment 5); parameters: key: 0 = disease as untreated, 5 = no disease (complete control); conditions: infected rice seeds (variety Tanginbozu) immersed 3 days in aqueous suspension (concentration not given), 3 weeks; number of diseased seedlings
Experimental: Ten grams of rice seeds (variety Tanginbozu), infected with Gibberella Fujikuroi, were immersed in 20 ml of an aqueous suspension of the test compound for 3 days. At the end of this time, the treated seeds were densely sown in soil in pots, and the pots were placed in a greenhouse at 20 - 30 °C for 3 weeks. The disease controlling index was given on the basis of the number of diseased seedlings.
(§2) The compounds tested have the formula (1-1), in which Ar represents the group shown at the beginning of each part of the Table and R^1, R^2, X and Y are as defined in the Table.
as §1

Sphaerotheca fuliginea = assay: Preventive activity against powdery mildew of cucumber (Experiment 8); conditions: cucumber seedlings sprayed at 300 ppm, inoculated after 24 hours, evaluated after 7 days in greenhouse; diseased area on third and fourth leaves
Experimental: Cucumber seedlings (variety Sagamihanpaku) at the 3 - 4 leaf stage were sprayed with an aqueous suspension of the test compound at a concentration of 300 ppm (30 ml/3 pots). The seedlings were then kept for 24 hours at room temperature, after which they were inoculated with conidida of Sphaerotheca fuliginea. After keeping the seedlings in a greenhouse for 7 days, the disease controlling index was evaluated on the basis of the diseased area on the third and fourth leaves.

Pyricularia oryzae = conditions: rice seedlings (variety Sachikaze), sprayed 24 hours after inoculation at 10 ppm (30 ml/3 pots), further 6 days; number of lesions on the upper two leaves
Rhizoctonia solani [3] = assay: Curative activity against sheath blight of rice plants (Experiment 3); parameters: key: 0 = disease as untreated, 5 = no disease (complete control); conditions: rice seedlings (variety Nihonbare), sprayed 24 hours after inoculation at 10 ppm (30 ml/3 pots), further 5 days; height of the lesions
Experimental: Rice seedlings (variety Nihonbare) at the 4 - 5 leaf stage were inoculated with the fungus, Rhizoctonia solani, by placing 4 - 5 oat grains on which the fungus had previously been cultured around the base of each rice seedling and keeping them in a moist chamber at 25 - 27 °C. After 24 hours, the rice seedlings were sprayed with an aqueous suspension of the test compound at a concentration of 10 ppm (30 ml/3 pots) and they then continued to be kept in the moist chamber for a further 5 days. The disease controlling index was given on the basis of the height of the lesions formed on the rice seedlings.
as §2, §1

Rhizoctonia solani [4] = assay: Preventive activity against sheath blight of rice plants by submerged application (Experiment 4); conditions: rice seedlings (variety Nihonbare), applied to the water in the pots, 100 g per 10 ares, inoculated after 7 days, 5 days; height of the lesions
Description: Rice seedlings (variety Nihonbare) at the 4 - 5 leaf stage grown in pots were flooded to a depth of 1 cm with water. The test compound was then applied to the water in the pots in an amount corresponding to 100 g per 10 ares. After keeping the seedlings in a greenhouse for 7 days, the water was drained from the pots and the seedlings were inoculated with the fungus, Rhizoctonia solani, by placing 4 - 5 oat grains on which the fungus had previously been cultured around the base of each seedling. The seedlings were then kept in a moist chamber for 5 days at 25 - 27 °C. The disease controlling index was given on the basis of the height of the lesions formed on the rice seedlings.
Except for Table 14F, the compounds tested have the formula (1-1), in which Ar represents the group shown at the beginning of each part of the Table and R^1, R^2, X and Y are as defined in the Table.
as §1

C[C@@H](NC(=O)c1ccc(F)cc1)[C@](O)(Cn1cncn1)c1ccc(Cl)cc1Cl (relative stereo) [Example 4, (2R*, 3R*)-2-(2,4-Dichlorophenyl)-3-(4-fluorobenzoylamino)-1-(1 H-1 ,2,4-triazol-1-yl)-2-butanol]
disease controlling index (Rhizoctonia solani [1]): 4 (disease rate is less than 10% of the untreated plant) | disease controlling index (Puccinia recondita): 5 | disease controlling index [2]: 5 | Index (disease controlling index) (Venturia inaequalis): 5

C[C@@H](NC(=O)c1ccc(Cl)cc1Cl)[C@](O)(Cn1cncn1)c1ccc(Cl)cc1Cl (relative stereo) [Example 11, (2R*, 3R*)-3-(2,4-Dichlorobenzoylamino)-2-(2,4-dichlorophenyl)-1-(1H-1,2,4-triazol-1-yl)-2-butanol]
disease controlling index (Rhizoctonia solani [1]): 4 (disease rate is less than 10% of the untreated plant) | disease controlling index (Gibberella Fujikuroi): 4 (disease rate is less than 10% of the untreated plant) | Index (disease controlling index) (Sphaerotheca fuliginea): 5 | Index (disease controlling index) (Venturia inaequalis): 5

C[C@@H](NC(=O)c1ccc(C(F)(F)F)cc1)[C@](O)(Cn1cncn1)c1ccc(Cl)cc1Cl (relative stereo) [Example 12, (2R*, 3R*)-2-(2,4-Dichlorophenyl)-1-(1H-1,2,4-triazol-1-yl)-3-(4-trifluoromethylbenzoylamino)-2-butanol]
disease controlling index (Pyricularia oryzae): 5 | disease controlling index (Rhizoctonia solani [1]): 5 | disease controlling index (Rhizoctonia solani [3]): 5 | disease controlling index (Gibberella Fujikuroi): 4 (disease rate is less than 10% of the untreated plant) | disease controlling index (Puccinia recondita): 5 | disease controlling index [2]: 5 | Index (disease controlling index) (Sphaerotheca fuliginea): 5 | Index (disease controlling index) (Venturia inaequalis): 5

C[C@@H](NC(=O)c1ccc(F)cc1)[C@](O)(Cn1cncn1)c1ccc(F)cc1F (relative stereo) [Example 15, (2R*, 3R*)-2-(2,4-Difluorophenyl)-3-(4-fluorobenzoylamino)-1-(1H-1,2,4-triazol-1-yl)-2-butanol]
disease controlling index (Gibberella Fujikuroi): 4 (disease rate is less than 10% of the untreated plant) | disease controlling index (Puccinia recondita): 5 | disease controlling index [2]: 5 | Index (disease controlling index) (Sphaerotheca fuliginea): 5

C[C@@H](NC(=O)c1ccc(Cl)cc1)[C@](O)(Cn1cncn1)c1ccc(F)cc1F (relative stereo) [Example 16, (2R*, 3R*)-3-(4-Chlorobenzoylamino)-2-(2,4-difluorophenyl)-1-(1 H-1 ,2,4-triazol-1-yl)-2-butanol]
disease controlling index (Pyricularia oryzae): 5 | disease controlling index (Rhizoctonia solani [1]): 5 | disease controlling index (Rhizoctonia solani [3]): 5 | disease controlling index (Gibberella Fujikuroi): 4 (disease rate is less than 10% of the untreated plant) | disease controlling index (Puccinia recondita): 5 | disease controlling index [2]: 5 | Index (disease controlling index) (Sphaerotheca fuliginea): 5 | disease controlling index (Venturia inaequalis; apple seedlings, sprayed at 300 ppm (30 ml/3 pots) 24 hours before inoculation, diseased area on the third and fourth leaves): 5

C[C@@H](N=[N+]=[N-])[C@](O)(Cn1cncn1)c1ccc(Cl)cc1 (relative stereo) [Example 63, (2R*, 3R*)-3-Azido-2-(4-chlorophenyl)-1-(1H-1,2,4-triazol-1-yl)-2-butanol]
disease controlling index (Gibberella Fujikuroi): 5

C[C@@H](CN=[N+]=[N-])[C@](O)(Cn1cncn1)c1ccc(Cl)cc1Cl (relative stereo) [Example 90, (2R*, 3S*)-4-Azido-2-(2,4-dichlorophenyl)-3-methyl-1-(1H-1,2,4-triazol-1-yl)-2-butanol]
disease controlling index (Pyricularia oryzae): 5 | disease controlling index (Rhizoctonia solani [1]): 5 | disease controlling index (Rhizoctonia solani [4]): 5 | disease controlling index (Gibberella Fujikuroi): 5

C[C@@H](N1C(=O)c2ccc(Cl)cc2C1=O)[C@](O)(Cn1cncn1)c1ccc(F)cc1F (relative stereo) [Example 135, (2R*, 3R*)-2-(2,4-Difluorophenyl)-3-(4-chlorophthalimido)-1-(1H-1,2,4-triazol-1-yl)-2-butanol]
disease controlling index (Pyricularia oryzae): 4 (disease rate is less than 10% of the untreated plant) | disease controlling index (Gibberella Fujikuroi): 4 (disease rate is less than 10% of the untreated plant) | disease controlling index (Puccinia recondita): 5 | disease controlling index [2]: 5 | Index (disease controlling index) (Sphaerotheca fuliginea): 5

CC[C@@H](OC1CCCCO1)[C@](O)(Cn1cncn1)c1ccc(F)cc1F (relative stereo) [Example 202, (2R^*, 3R*)-2-(2,4-Difluorophenyl)-3-tetrahydropyranyloxy)-1-(1H-1,2,4-triazol-1-yl)-2-pentanol]
disease controlling index (Pyricularia oryzae): 4 (disease rate is less than 10% of the untreated plant) | disease controlling index (Rhizoctonia solani [1]): 4 (disease rate is less than 10% of the untreated plant) | disease controlling index (Rhizoctonia solani [3]): 4 (disease rate is less than 10% of the untreated plant) | disease controlling index (Puccinia recondita): 5 | disease controlling index [2]: 5

O=C(NCC(O)(Cn1cncn1)c1ccc(Cl)cc1Cl)c1ccc(Cl)cc1 (stereo not shown) [Compound X, 3-(4-chlorobenzoylamino)-2-(2,4-dichlorophenyl)-1-(1H-1,2,4-triaiol-1-yl)-2-propanol, reference compound]
disease controlling index (Pyricularia oryzae): 0 | disease controlling index (Rhizoctonia solani [3]): 0 | disease controlling index (Rhizoctonia solani [4]): 0

C[C@@H](NC(=O)c1ccc(C(F)(F)F)cc1)[C@](O)(Cn1cncn1)c1ccc(Cl)cc1Cl [Example 13, (2R, 3R)-2-(2,4-Dichlorophenyl)-3-(4-trifluoromethylbenzoylamino)-1-(1H-1,2,4-triazol-1-yl)-2-butanol]
disease controlling index (Pyricularia oryzae): 5 | disease controlling index (Rhizoctonia solani [1]): 4 (disease rate is less than 10% of the untreated plant) | disease controlling index (Gibberella Fujikuroi): 5 | disease controlling index (Puccinia recondita): 5 | disease controlling index [2]: 5 | Index (disease controlling index) (Sphaerotheca fuliginea): 5
